Test results as given in patent publication US20250304563A1, “ACTIVATORS OF EFFECTOR T CELLS” (Orum Therapeutics, Inc., priority 2022, published 2025).

Key:
[1] = tested on: Human primary T cells; assay: T cell activation: CD69 surface expression by flow cytometry; format: cell-based; settings: fold over anti-CD3 stimulated background normalized to Compound 141A; for CD69 10 nM: 10 nM compound; for CD69 100 nM: 100 nM compound
In short: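 Negatively selected human primary T cells (1×10^5/well, XVivo-15) were captured on plates coated with 10 μg/mL anti-CD3 (OKT3). They were exposed to serially diluted compounds in duplicate for 48 h at 37° C. CD69 was read by flow cytometry as fold over anti-CD3-only background, normalized to Compound 141A and binned into ranges.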

[2] = tested on: Human primary T cells; assay: T cell activation: secreted IFN-y; format: cell-based; settings: 48 hours, fold over background normalized to Compound 141A; for IFN-y 1 nM: 1 nM compound; for IFN-y 10 nM: 10 nM compound; for IFN-y 100 nM: 100 nM compound
In short: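 Negatively selected primary human T cells (1×10^5/well, serum-free XVivo-15) on plates coated with 10 μg/mL anti-CD3 were exposed to serial compound dilutions for 48 h at 37 °C. Secreted IFN-γ was measured by cytometric bead array and expressed as fold over anti-CD3/CD28 background, normalized to a reference compound and binned into ranges A–D.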

[3] = tested on: Human primary T cells; assay: T cell activation: secreted IL-2; format: cell-based; settings: 48 hours, fold over background normalized to Compound 141A; for IL-2 1 nM: 1 nM compound; for IL-2 10 nM: 10 nM compound; for IL-2 100 nM: 100 nM compound
In short: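 Negatively selected human primary T cells on plate-bound anti-CD3 (OKT3) in serum-free medium, treated 48 h at 37° C. with serial compound dilutions in duplicate. Secreted IL-2 by bead-based cytometric assay, expressed as fold over anti-CD3/CD28 background normalized to a reference compound, then binned into ranges.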

[4] = target: Cbl-b (36-427 aa truncated form, N-terminus Avi-tag) (Homo sapiens (Human), UniProt Q13191); assay: Cbl-b binding: TR-FRET displacement of BODIPY-FL probe
In short: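 Avi-tagged Cbl-b 36-427 preincubated 1 h at RT with streptavidin-terbium in HEPES pH 7.5/NaCl/Triton/BSA/TCEP buffer, then 1 uM BODIPY-FL inhibitor probe plus compound added for 1 h. Probe displacement read by TR-FRET; IC50 fitted.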

Cbl-b (36-427 aa truncated form, N-terminus Avi-tag), sequence (Q13191 36-427): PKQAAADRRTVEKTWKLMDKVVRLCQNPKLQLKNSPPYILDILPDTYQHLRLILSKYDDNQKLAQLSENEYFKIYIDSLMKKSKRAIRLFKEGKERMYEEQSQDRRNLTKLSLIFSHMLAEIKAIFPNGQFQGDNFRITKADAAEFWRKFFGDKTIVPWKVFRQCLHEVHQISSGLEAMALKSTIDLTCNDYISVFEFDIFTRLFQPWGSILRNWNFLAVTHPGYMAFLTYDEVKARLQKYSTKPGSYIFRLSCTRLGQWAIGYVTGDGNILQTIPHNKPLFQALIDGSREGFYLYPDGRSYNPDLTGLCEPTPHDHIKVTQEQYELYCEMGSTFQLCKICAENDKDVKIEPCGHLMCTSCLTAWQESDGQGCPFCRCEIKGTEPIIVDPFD

Row | Structure (SMILES) | IC50 [4] | CD69 10 nM [1] | CD69 100 nM [1] | IFN-y 1 nM [2] | IFN-y 10 nM [2] | IFN-y 100 nM [2] | IL-2 1 nM [3] | IL-2 10 nM [3] | IL-2 100 nM [3]
1 | C[C@H]1CCCN(Cc2cc3c(c(C(F)(F)F)c2)CN(c2cc(C4(Cc5nncn5C)COC4)cc(C#N)n2)C3=O)C1 [Compound 115, 4-{3-[(4-methyl-1,2,4-triazol-3-yl)methyl]oxetan-3-yl}-6-(6-{[(3S)-3-methylpiperidin-1-yl]methyl}-1-oxo-4-(trifluoromethyl)-3H-isoindol-2-yl)pyridine-2-carbonitrile] | 100 to 1000 nM | C (values between 0.30 and 0.60: range “C”) | B (values between 0.61 and 0.80: range “B;”) | C (values between 0.10 and 0.30: range “C”) | C (values between 0.10 and 0.30: range “C”) | B (values between 0.31 and 1.00: range “B;”) | C (values between 0.10 and 0.30: range “C”) | C (values between 0.10 and 0.30: range “C”) | B (values between 0.31 and 0.79: range “B”)
2 | CCNc1cc(C2(Cc3nncn3C)COC2)cc(N2Cc3c(cc(C(CSC)N4CCC[C@H](C)C4)cc3C(F)(F)F)C2=O)n1.O=C(O)C(F)(F)F (stereo partly drawn) [Compound 117, 2-[6-(ethylamino)-4-{3-[(4-methyl-1,2,4-triazol-3-yl)methyl]oxetan-3-yl}pyridin-2-yl]-6-{1-[(3S)-3-methylpiperidin-1-yl]-2-(methylsulfanyl)ethyl}-4-(trifluoromethyl)-3H-isoindol-1-one; trifluoroacetic acid] | 20 to 100 nM | C (values between 0.30 and 0.60: range “C”) | B (values between 0.61 and 0.80: range “B;”) | C (values between 0.10 and 0.30: range “C”) | C (values between 0.10 and 0.30: range “C”) | B (values between 0.31 and 1.00: range “B;”) | C (values between 0.10 and 0.30: range “C”) | C (values between 0.10 and 0.30: range “C”) | C (values between 0.10 and 0.30: range “C”)
3 | C[C@H]1CCCN(Cc2cc3c(c(C(F)(F)F)c2)CN(c2cc(C4(Cc5nncn5C)COC4)cc(SCC(O)CO)n2)C3=O)C1.O=CO (stereo partly drawn) [Compound 120, 2-{6-[(2,3-dihydroxypropyl)sulfanyl]-4-{3-[(4-methyl-1,2,4-triazol-3-yl)methyl]oxetan-3-yl}pyridin-2-yl}-6-{[(3S)-3-methylpiperidin-1-yl]methyl}-4-(trifluoromethyl)-3H-isoindol-1-one; formic acid] | 20 to 100 nM | C (values between 0.30 and 0.60: range “C”) | C (values between 0.30 and 0.60: range “C”) | C (values between 0.10 and 0.30: range “C”) | C (values between 0.10 and 0.30: range “C”) | C (values between 0.10 and 0.30: range “C”) | C (values between 0.10 and 0.30: range “C”) | C (values between 0.10 and 0.30: range “C”) | C (values between 0.10 and 0.30: range “C”)
4 | C=CC(=O)N1CCN(c2cc(C3(Cc4nncn4C)COC3)cc(N3Cc4c(cc(CN5CCC[C@H](C)C5)cc4C(F)(F)F)C3=O)n2)CC1 [Compound 121, (S)-2-(6-(4-acryloylpiperazin-1-yl)-4-(3-((4-methyl-4H-1,2,4-triazol-3-yl)methyl)oxetan-3-yl)pyridin-2-yl)-6-((3-methylpiperidin-1-yl)methyl)-4-(trifluoromethyl)isoindolin-1-one] | 20 to 100 nM | C (values between 0.30 and 0.60: range “C”) | A (values between 0.81 and 1.10: range “A”) | C (values between 0.10 and 0.30: range “C”) | C (values between 0.10 and 0.30: range “C”) | B (values between 0.31 and 1.00: range “B;”) | C (values between 0.10 and 0.30: range “C”) | C (values between 0.10 and 0.30: range “C”) | B (values between 0.31 and 0.79: range “B”)

The next lines start with results.

Row | IC50 [4] | Structure (SMILES) | CD69 10 nM [1] | CD69 100 nM [1] | IFN-y 1 nM [2] | IFN-y 10 nM [2] | IFN-y 100 nM [2] | IL-2 1 nM [3] | IL-2 10 nM [3] | IL-2 100 nM [3]
5 | 20 to 100 nM | CCSc1cc(C2(c3nncn3C)CC(C)C2)cc(N2Cc3c(cc(CN4CCC[C@H](C)C4)cc3C(F)(F)F)C2=O)n1 (stereo partly drawn) [Compound 113, 2-[6-(ethylsulfanyl)-4-[(1s,3r)-3-methyl-1-(4-methyl-1,2,4-triazol-3-yl)cyclobutyl]pyridin-2-yl]-6-{[(3S)-3-methylpiperidin-1-yl]methyl}-4-(trifluoromethyl)-3H-isoindol-1-one] | B (values between 0.61 and 0.80: range “B;”) | A (values between 0.81 and 1.10: range “A”) | C (values between 0.10 and 0.30: range “C”) | B (values between 0.31 and 1.00: range “B;”) | B (values between 0.31 and 1.00: range “B;”) | C (values between 0.10 and 0.30: range “C”) | B (values between 0.31 and 0.79: range “B”) | B (values between 0.31 and 0.79: range “B”)
6 | 5.01 to 20 nM | C=CC(=O)NCc1cc(C2(Cc3nncn3C)COC2)cc(N2Cc3c(cc(CN4CCC[C@H](C)C4)cc3C(F)(F)F)C2=O)n1 [Compound 116, N-[(4-{3-[(4-methyl-1,2,4-triazol-3-yl)methyl]oxetan-3-yl}-6-(6-{[(3S)-3-methylpiperidin-1-yl]methyl}-1-oxo-4-(trifluoromethyl)-3H-isoindol-2-yl)pyridin-2-yl)methyl]prop-2-enamide] | C (values between 0.30 and 0.60: range “C”) | B (values between 0.61 and 0.80: range “B;”) | C (values between 0.10 and 0.30: range “C”) | C (values between 0.10 and 0.30: range “C”) | B (values between 0.31 and 1.00: range “B;”) | C (values between 0.10 and 0.30: range “C”) | C (values between 0.10 and 0.30: range “C”) | B (values between 0.31 and 0.79: range “B”)
7 | 1 to 5 nM | C[C@H]1CCCN(Cc2cc3c(c(C(F)(F)F)c2)CN(c2cc(C4(Cc5nncn5C)COC4)cc(NCCN=[N+]=[N-])n2)C3=O)C1 [Compound 118, 2-{6-[(2-azidoethyl)amino]-4-{3-[(4-methyl-1,2,4-triazol-3-yl)methyl]oxetan-3-yl}pyridin-2-yl}-6-{[(3S)-3-methylpiperidin-1-yl]methyl}-4-(trifluoromethyl)-3H-isoindol-1-one] | A (values between 0.81 and 1.10: range “A”) | A (values between 0.81 and 1.10: range “A”) | B (values between 0.31 and 1.00: range “B;”) | A (fold over background between 1.10 and 2.00: range “A”) | A (fold over background between 1.10 and 2.00: range “A”) | B (values between 0.31 and 0.79: range “B”) | B (values between 0.31 and 0.79: range “B”) | A (between 0.80 and 1.40: range “A”)
8 | 1 to 5 nM | C[C@H]1CCCN(Cc2cc3c(c(C(F)(F)F)c2)CN(c2cc(C4(Cc5nncn5C)COC4)cc(NCC#N)n2)C3=O)C1 [Compound 119, (S)-2-((4-(3-((4-methyl-4H-1,2,4-triazol-3-yl)methyl)oxetan-3-yl)-6-(6-((3-methylpiperidin-1-yl)methyl)-1-oxo-4-(trifluoromethyl)isoindolin-2-yl)pyridin-2-yl)amino)acetonitrile] | B (values between 0.61 and 0.80: range “B;”) | A (values between 0.81 and 1.10: range “A”) | C (values between 0.10 and 0.30: range “C”) | B (values between 0.31 and 1.00: range “B;”) | B (values between 0.31 and 1.00: range “B;”) | C (values between 0.10 and 0.30: range “C”) | B (values between 0.31 and 0.79: range “B”) | B (values between 0.31 and 0.79: range “B”)
